Some test systems named below: DU-145 prostate; HS 578T breast; T-47D breast; PC-3 prostate; MDA-MB-435.
What all share (test): NCI anticancer screen, dose series, 48 h

Where “and” joins values, the source holds several entries; their conditions need not be identical. Identical values can stand only once.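 Where inhibition never reached the appropriate level, the endpoint shown equals the highest concentration tested. Otherwise, values were interpolated linearly from a five-concentration, 48-hour dose response in 96-well plates. GI50 = concentration required for 50% inhibition of growth. TGI marks complete inhibition of growth.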 A value given as a limit tells only on which side of the number the result lay.

The values below come from PubChem BioAssay (NCI).

With `CC(=O)C1=C(O)C=C2Oc3c(C(=O)/C=C/c4cc(C(F)(F)F)cc(C(F)(F)F)c4)c(O)c(C)c(O)c3[C@]2(C)C1=O`, the GI50 with DU-145 prostate was 0.63 µM; in the assay with HS 578T breast it was 0.861 µM; with T-47D breast it was 0.385 µM; in the assay on PC-3 prostate it was 0.564 µM; in the assay on MDA-MB-435, 0.587 µM. The TGI with DU-145 prostate amounted to 4.91 µM; in the assay with HS 578T breast it was 5.4 µM; in the assay with T-47D breast, 1.37 µM; with PC-3 prostate, 2.3 µM; in the assay with MDA-MB-435 it was 2.35 µM.
For the compound `C=C(CNC(=O)Nc1ccc(-c2ccccc2)cc1)c1ccc(C(=O)Nc2ccccc2N)cc1`, the GI50 with DU-145 prostate is 27.7 µM; in the assay with HS 578T breast, 81.7 µM; in the assay with T-47D breast it was over 100 µM; in the assay on PC-3 prostate it was 51.5 µM; with MDA-MB-435, 89.8 µM. Also, the TGI in the assay on DU-145 prostate, in the assay on HS 578T breast, in the assay with T-47D breast, in the assay with PC-3 prostate and with MDA-MB-435 was over 100 µM throughout.
`CC(=O)N1CCN(C2=Nc3ccccc3CO2)C1=S`: the GI50 was over 100 µM in the assay with DU-145 prostate, 33 µM in the assay with T-47D breast, 87.6 µM with PC-3 prostate and 81.4 µM in the assay with MDA-MB-435. Moreover, the TGI in the assay on DU-145 prostate, in the assay on T-47D breast, in the assay with PC-3 prostate and with MDA-MB-435 was over 100 µM throughout.
For `COc1cc(/C(Cl)=C/C=C/C(=O)c2c(C)[n+]([O-])c3ccc(Cl)cc3[n+]2[O-])cc(OC)c1OC`, the GI50 is 11.8 µM in the assay with DU-145 prostate; 6.47 µM in the assay on HS 578T breast; 10.7 µM with T-47D breast; 3.58 µM in the assay on PC-3 prostate; 0.673 µM in the assay on MDA-MB-435. Besides, the TGI in the assay with DU-145 prostate is over 50 µM; in the assay with HS 578T breast, 35.7 µM; in the assay on T-47D breast, over 50 µM; with PC-3 prostate, over 50 µM; with MDA-MB-435, 1.74 µM.
With `Cc1[nH]ncc1-c1cc2nc(C3CC4CCN3CC4)[nH]c(=O)c2s1` (stereo not given), the GI50 with DU-145 prostate is 3 µM; in the assay with HS 578T breast, 3.87 µM; in the assay on PC-3 prostate, 4.13 µM; in the assay with MDA-MB-435 it was 4.45 µM. For the same compound, the TGI was over 100 µM with DU-145 prostate, over 100 µM with HS 578T breast, over 100 µM in the assay with PC-3 prostate and 30 µM with MDA-MB-435.
For the compound `CC(C)(C)OC(=O)NCCNC1=CC(=O)c2nc3ccccc3c3ccnc1c23`, the GI50 is 22.7 µM with DU-145 prostate; 25.5 µM in the assay on HS 578T breast; 25.8 µM in the assay on T-47D breast; 15.1 µM in the assay with PC-3 prostate; 15.7 µM in the assay on MDA-MB-435. The TGI in the assay on DU-145 prostate was 80.9 µM; with HS 578T breast, 73.8 µM; in the assay with T-47D breast it was over 100 µM; in the assay with PC-3 prostate it was 49.2 µM; with MDA-MB-435, 37.7 µM.
Regarding `O=C(Nc1ccc(Cl)cc1Cl)c1ccc(NC2=C(Cl)C(=O)N(Cc3ccccc3)C2=O)cc1`, the GI50 with DU-145 prostate was 18.7 µM; in the assay on HS 578T breast it was 23.5 µM; in the assay with T-47D breast, 23.4 µM; in the assay on PC-3 prostate, 13.4 µM; in the assay with MDA-MB-435, 32.5 µM. For the same compound, the TGI with DU-145 prostate was 39.4 µM; with HS 578T breast, 47 µM; in the assay with T-47D breast, over 100 µM; with PC-3 prostate, 26.2 µM; in the assay on MDA-MB-435 it was over 100 µM.
With `O=C(c1ccc2ccccc2c1O)N1CCCCC1`, the TGI with DU-145 prostate, with HS 578T breast, with T-47D breast, in the assay on PC-3 prostate and with MDA-MB-435 was over 100 µM in each case.
As for `Cc1ccccc1NC(=S)Nc1ccccn1`, the GI50 was over 100 µM in the assay on DU-145 prostate; over 100 µM with HS 578T breast; 55.7 µM in the assay on T-47D breast; over 100 µM in the assay on PC-3 prostate; over 100 µM with MDA-MB-435. For the same compound, the TGI in the assay on DU-145 prostate, in the assay with HS 578T breast, with T-47D breast, in the assay on PC-3 prostate and in the assay with MDA-MB-435 was over 100 µM throughout.
With `Cc1cc(C)nc(NC(N)=NCCc2ccccc2)n1`, the GI50 is 3.4 µM in the assay on DU-145 prostate; 4.41 µM in the assay with HS 578T breast; 2.35 µM with T-47D breast; 3.88 µM in the assay on PC-3 prostate; 1.52 µM with MDA-MB-435. Moreover, the TGI in the assay on DU-145 prostate was over 100 µM; in the assay with HS 578T breast it was 54.9 µM; with T-47D breast, 43.6 µM; in the assay on PC-3 prostate, over 100 µM; with MDA-MB-435, 4.49 µM.
Take `CN1CCc2cc3c(cc2C1O)OCO3` (stereo not given): the GI50 with DU-145 prostate is 16.7 µM and > 100 µM; in the assay with PC-3 prostate it was 17 µM and > 100 µM. Further, the TGI in the assay on DU-145 prostate is 30.8 µM and > 100 µM; in the assay on HS 578T breast it was 82.3 µM and > 100 µM; in the assay on PC-3 prostate it was 42.7 µM and > 100 µM; with MDA-MB-435, 11.9 µM and > 100 µM.
Turning to `C[n+]1c(/C=C\C=C\N2CCCCC2)sc2ccccc21`, the GI50 is 0.598 µM with DU-145 prostate; 1.11 µM in the assay on HS 578T breast; 0.2 µM in the assay with T-47D breast; 0.237 µM in the assay with PC-3 prostate; 0.266 µM in the assay on MDA-MB-435. Besides, the TGI turned out to be 17.1 µM in the assay on DU-145 prostate; 22.5 µM in the assay with HS 578T breast; 2.72 µM in the assay with T-47D breast; 2.97 µM with PC-3 prostate; 1.96 µM with MDA-MB-435.
In the case of `COc1ccc(-c2[nH]ncc2-c2cc3c(c(OC)c2)OCC(=O)N3)cc1`, the GI50 was 1.18 µM in the assay on DU-145 prostate, 0.298 µM with HS 578T breast, 0.406 µM with T-47D breast and 0.538 µM in the assay on PC-3 prostate. Besides, the TGI is over 100 µM in the assay on DU-145 prostate, 2.24 µM in the assay with HS 578T breast, 42.9 µM in the assay on T-47D breast and over 100 µM with PC-3 prostate.
As to `O=C(c1ccccc1)c1c(NCC(O)CN2CCCC2)n(Cc2ccccc2)c(=O)n(Cc2ccccc2)c1=O` (stereo not given), the GI50 with DU-145 prostate was 17.8 µM; in the assay on HS 578T breast, 16.2 µM; in the assay on T-47D breast, 21.3 µM; in the assay with PC-3 prostate it was 17.5 µM; in the assay with MDA-MB-435, 17.4 µM. The TGI in the assay on DU-145 prostate turned out to be 34.7 µM; in the assay with HS 578T breast, 37.8 µM; with T-47D breast it was 45.7 µM; in the assay on PC-3 prostate it was 36.6 µM; with MDA-MB-435, 32.8 µM.
As for `O=P([O-])(O)OP(=O)([O-])O.[NH-][C@H]1CCCC[C@@H]1[NH-].[OH-].[OH-].[Pt+4]`, the GI50 in the assay on DU-145 prostate was 33.3 µM; with HS 578T breast, 36.1 µM; with T-47D breast, 25 µM; in the assay on PC-3 prostate it was 25.2 µM; with MDA-MB-435, 31.2 µM. Moreover, the TGI is over 100 µM in the assay on DU-145 prostate; 93.1 µM in the assay with HS 578T breast; 61.4 µM in the assay on T-47D breast; 68.2 µM in the assay with PC-3 prostate; over 100 µM in the assay with MDA-MB-435.
Consider `COC(=O)[C@@H](NC(=O)NC(=O)NC(=O)CI)C(C)C`, for which the GI50 with DU-145 prostate was 16.4 µM; in the assay with HS 578T breast, 26.4 µM; in the assay on T-47D breast, 6 µM; with PC-3 prostate, 16.3 µM; in the assay with MDA-MB-435 it was 9.97 µM. The TGI was 29.9 µM in the assay with DU-145 prostate; 74.6 µM with HS 578T breast; 34.5 µM in the assay on T-47D breast; 30.7 µM in the assay on PC-3 prostate; 21.7 µM with MDA-MB-435.
On to `COc1cc(-c2nn3c(/C=C4/C(=O)Nc5ccccc54)c(-c4ccc(C)cc4)nc3s2)cc(OC)c1OC`, for which the GI50 in the assay with DU-145 prostate was 2.55 µM; in the assay with HS 578T breast it was 0.505 µM; in the assay on T-47D breast it was 3.13 µM; with PC-3 prostate, 81.1 µM. In addition, the TGI with DU-145 prostate was over 100 µM; in the assay on HS 578T breast it was 7.49 µM; with T-47D breast, over 100 µM; in the assay on PC-3 prostate it was over 100 µM.
Take `CN1CCN(c2ccc(C(=O)Nc3n[nH]c4ccc(Cc5cc(F)cc(F)c5)cc34)c(NC3CCOCC3)c2)CC1`: the GI50 is 4.22 µM and 1.65 µM with DU-145 prostate; 1.23 µM and 1.21 µM in the assay with HS 578T breast; 1.99 µM in the assay on T-47D breast; 2.83 µM and 1.38 µM in the assay on PC-3 prostate; 1.39 µM and 1.49 µM in the assay on MDA-MB-435. Besides, the TGI in the assay with DU-145 prostate was > 10 µM and 3.04 µM; in the assay with HS 578T breast it was 4.37 µM and 3.22 µM; with T-47D breast, over 10 µM; in the assay on PC-3 prostate, > 10 µM and 2.99 µM; in the assay on MDA-MB-435 it was 2.86 µM and 3.13 µM.
Turning to `NS(=O)(=O)c1ccc(NC(=O)c2ccc(NC3=C(Cl)C(=O)N(Cc4ccccc4)C3=O)cc2)cc1`, the GI50 is 17 µM in the assay with DU-145 prostate; 1.64 µM with HS 578T breast; 18.4 µM with T-47D breast; 12.8 µM in the assay on PC-3 prostate; 10.6 µM in the assay with MDA-MB-435. Moreover, the TGI was 30.6 µM in the assay on DU-145 prostate; 4.5 µM with HS 578T breast; over 100 µM in the assay with T-47D breast; 34 µM in the assay with PC-3 prostate; 26.5 µM in the assay with MDA-MB-435.
For the compound `COc1cc2c(/C=N\N=C(N)N)c(Cl)[nH]c2cc1C`, the GI50 in the assay on HS 578T breast is 10.8 µM; with T-47D breast, 2.96 µM; with PC-3 prostate, 6.54 µM; with MDA-MB-435, 12.2 µM. The TGI turned out to be 32.6 µM in the assay on HS 578T breast, 9.12 µM in the assay with T-47D breast, 19.5 µM in the assay with PC-3 prostate and 26.2 µM in the assay with MDA-MB-435.
For `COc1cc(C(=O)OCCCCCCCCCCC[P+](c2ccccc2)(c2ccccc2)c2ccccc2)ccc1O`, the results for the GI50 with DU-145 prostate, in the assay on HS 578T breast and in the assay on MDA-MB-435 were 0.46 µM, 0.549 µM and 0.312 µM, respectively. Besides, the TGI was 1.58 µM in the assay on DU-145 prostate, 5.25 µM in the assay on HS 578T breast and 1.24 µM with MDA-MB-435.
On to `COc1cccc(C2CC(c3cc(OC)c(OC)c(OC)c3)=NN2)c1` (stereo not given), for which the GI50 was 15.5 µM in the assay with HS 578T breast, 20.2 µM in the assay on T-47D breast, 7.26 µM with PC-3 prostate and 2.79 µM in the assay on MDA-MB-435. In addition, the TGI was 49.4 µM in the assay on HS 578T breast, over 100 µM in the assay with T-47D breast, 45.9 µM in the assay with PC-3 prostate and 9.39 µM with MDA-MB-435.
